The IC50 is the point on the concentration scale where inhibition reaches its midpoint.

The results in this text go back to US20250214969A1, “PROTEIN DEGRADERS AND USES THEREOF” (Kymera Therapeutics, Inc., priority 2022, published 2025).

The target of assay [1] is T1, truncated His-MBP-Tev-KLHDC2 (residues 1-363) (Homo sapiens, UniProt Q9Y2U9).
T1 construct: truncated His -MBP-Tev-KLHDC2 (residues 1-363) purified from E. coli; made in house; host or cells: E. coli
T1 sequence (Q9Y2U9 1-363): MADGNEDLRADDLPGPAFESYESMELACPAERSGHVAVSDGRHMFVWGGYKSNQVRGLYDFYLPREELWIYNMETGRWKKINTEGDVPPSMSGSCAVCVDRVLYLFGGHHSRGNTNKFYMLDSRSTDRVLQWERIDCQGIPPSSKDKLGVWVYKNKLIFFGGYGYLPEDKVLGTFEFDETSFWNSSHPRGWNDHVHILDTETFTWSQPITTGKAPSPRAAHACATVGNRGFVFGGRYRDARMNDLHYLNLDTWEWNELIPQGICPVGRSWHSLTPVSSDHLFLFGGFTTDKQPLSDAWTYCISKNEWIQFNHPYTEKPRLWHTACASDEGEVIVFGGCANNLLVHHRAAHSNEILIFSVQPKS
The assay can be described thus: KLHDC2 FP competition binding assay. The conditions noted are these: 15 nM KLHDC2 (residues 1-363), 10 nM fluorescein-labeled diglycine peptide probe, read-out: KLHDC2 binding Human FP: average external IC50.

Assay [2] deals with T1, truncated His-MBP-Tev-KLHDC2 (residues 1-363). The assay can be described thus: KLHDC2 HTRF binding assay. The conditions noted are these: 1 nM KLHDC2 (residues 1-363), fluorescein-labeled diglycine peptide probe. In general terms: In TR-FRET formats the signal depends on donor and acceptor labels being close together.

As to `CCOC(=O)Cn1cc(NC(=O)c2cccc(-c3cncc(CCCCCCN)c3)c2)ccc1=O` [I-159], the IC50 in assay [1] and in assay [2] was over 5 µM each time.
As for `CC(C)(C)OC(=O)NCCCCCCn1ccc2c(C(=O)Nc3ccc(=O)n(CC(=O)O)c3)cccc21` [I-160], the half-inhibitory concentration (IC50) in assay [1] lay in the range of 0.5 to 5 µM; in assay [2], 0.05 to 0.5 µM.
For `O=C(O)Cn1cc(NC(=O)c2ccc(-c3ccccc3)cc2F)ccc1=O` [I-161] the same measures were 0.5 to 5 µM and 0.5 to 5 µM.
Take `CCOC(=O)Cn1cc(NC(=O)c2cc(CCCCCCNC(=O)OC(C)(C)C)cc(-c3cccnc3)c2)ccc1=O` [I-162]: the IC50 in assay [1] and in assay [2] was over 5 µM in each case.
With `NCCCCCCc1ccncc1-c1cccc(C(=O)Nc2ccc(=O)n(CC(=O)O)c2)c1` [I-163], the IC50 in assay [1] and in assay [2] was 0.5 to 5 µM each time.
As to `CC(C)(C)OC(=O)NCCCCCCc1ccncc1-c1cccc(C(=O)Nc2ccc(=O)n(CC(=O)O)c2)c1` [I-164], the IC50 is 0.5 to 5 µM in assay [1] and 0.05 to 0.5 µM in assay [2].
Regarding `CC(C)(C)OC(=O)NCCCCCCc1cc(C(=O)Nc2ccc(=O)n(CC(=O)O)c2)cc(-c2cccnc2)c1` [I-165], the 50% inhibitory concentration (IC50) in assay [1] was 0.05 to 0.5 µM; in assay [2], under 0.05 µM.
Take `NCCCCCCc1cc(C(=O)Nc2ccc(=O)n(CC(=O)O)c2)cc(-c2cccnc2)c1` [I-166]: the IC50 in assay [1] and in assay [2] was 0.5 to 5 µM in each case.
In the case of `NCCCCCCc1cncc(-c2cccc(C(=O)Nc3ccc(=O)n(CC(=O)O)c3)c2)c1` [I-167], the 50% inhibitory concentration (IC50) in assay [1] lay within 0.5 to 5 µM; in assay [2] it was 0.05 to 0.5 µM.
In the same order, the values of `O=C(O)Cn1cc(NC(=O)c2cccc(-c3cncs3)c2)ccc1=O` [I-168] are over 5 µM and 0.5 to 5 µM.
In the same order, the values of `CC(C)(C)OC(=O)NCCCCCCc1cncc(-c2cccc(C(=O)Nc3ccc(=O)n(CC(=O)O)c3)c2)c1` [I-169] are 0.05 to 0.5 µM and under 0.05 µM.
For `Cc1ccc(C(=O)Nc2ccc(=O)n(CC(=O)O)c2)nc1-c1cccnc1` [I-170] the same measures were over 5 µM and 0.5 to 5 µM.
As to `Cc1cc(C(=O)Nc2ccc(=O)n(CC(=O)O)c2)sc1-c1cccnc1` [I-171], the half-maximal inhibitory concentration (IC50) in assay [1] and in assay [2] was over 5 µM throughout.
On to `O=C(O)Cn1cc(NC(=O)c2cccc(-c3cccs3)c2)ccc1=O` [I-172, 2-(2-oxo-5-(3-(thiophen-2-yl)benzamido)pyridin-1 (2H)-yl) acetic acid], for which the IC50 in assay [1] and in assay [2] was over 5 µM in each case.
As for `Cc1ccc(C(=O)Nc2ccc(=O)n(CC(=O)O)c2)nc1-c1ccccc1` [I-173], the concentration for half-maximal inhibition (IC50) in assay [1] was over 5 µM; in assay [2], 0.5 to 5 µM.
In the same order, the values of `CC(C)c1ccc(C(=O)Nc2ccc(=O)n(CC(=O)O)c2)cc1-c1cccnc1` [I-174] are 0.5 to 5 µM and 0.5 to 5 µM.
Take `CC(C)c1ccc(C(=O)Nc2ccc(=O)n(CC(=O)O)c2)cc1-c1ccccc1` [I-175]: the IC50 was over 5 µM in assay [1] and 0.5 to 5 µM in assay [2].
For `O=C(O)Cn1cc(NC(=O)c2ccc3nc(Cl)ccc3c2)ccc1=O` [I-176], the half-maximal inhibitory concentration (IC50) in assay [1] and in assay [2] was over 5 µM throughout.
For `O=C(O)Cn1cc(NC(=O)c2ccc3cc(Cl)ccc3c2)ccc1=O` [I-177], the 50% inhibitory concentration (IC50) in assay [1] was over 5 µM; in assay [2], 0.5 to 5 µM.
With `Cn1cc(-c2cccc(C(=O)Nc3ccc(=O)n(CC(=O)O)c3)c2)ccc1=O` [I-178], the IC50 in assay [1] and in assay [2] was over 5 µM each time.
Consider `CC(C)c1ccc(S(=O)(=O)NCCC(=O)Nc2ccc(=O)n(CC(=O)O)c2)cc1` [I-180], for which the IC50 in assay [1] and in assay [2] was over 5 µM each time.
`CCc1ccc(C(=O)Nc2ccc(=O)n(CC(=O)O)c2)cc1-c1cccnc1` [I-181]: the results for the half-maximal inhibitory concentration (IC50) in assay [1] and in assay [2] were over 5 µM and 0.5 to 5 µM, respectively.
For `CCc1ccc(C(=O)Nc2ccc(=O)n(CC(=O)O)c2)cc1-c1ccccc1` [I-182] the same measures were over 5 µM and 0.5 to 5 µM.
`O=C(O)Cn1cc(NC(=O)[C@H]2CC[C@H](NC(=O)C3CCCC3)CC2)ccc1=O` [I-183]: the half-maximal inhibitory concentration (IC50) in assay [1] and in assay [2] was over 5 µM in each case.
As for `O=C(O)CC(C(=O)n1ccc2ccccc21)c1ccc(=O)n(CC(=O)O)c1` (centres unmarked) [I-184], the IC50 in assay [1] and in assay [2] was over 5 µM throughout.
On to `O=C(O)Cn1cc(NC(=O)c2ccc(-c3ccccc3)c(Cl)c2)ccc1=O` [I-185], for which the 50% inhibitory concentration (IC50) in assay [1] is over 5 µM; in assay [2], 0.5 to 5 µM.
For `COc1nc2ccccc2cc1C(=O)Nc1ccc(=O)n(CC(=O)O)c1` [I-186] the same measures were over 5 µM and over 5 µM.
In the same order, the values of `Cc1ccc2nc(C(=O)Nc3ccc(=O)n(CC(=O)O)c3)ccc2c1` [I-187] are over 5 µM and over 5 µM.
With `CCCOc1nc2ccccc2cc1C(=O)Nc1ccc(=O)n(CC(=O)O)c1` [I-188], the half-inhibitory concentration (IC50) in assay [1] and in assay [2] was over 5 µM each time.
As to `Cc1ccc2cc(C(=O)Nc3ccc(=O)n(CC(=O)O)c3)cnc2c1` [I-189], the IC50 in assay [1] and in assay [2] was over 5 µM in each case.
As to `O=C(O)Cn1cc(NC(=O)CCNC(=O)c2ccc3ccccc3c2)ccc1=O` [I-190], the 50% inhibitory concentration (IC50) in assay [1] and in assay [2] was over 5 µM in each case.
Turning to `Cc1ccc2cc(C(=O)Nc3ccc(=O)n(CC(=O)O)c3)c(C)nc2c1` [I-191], the half-inhibitory concentration (IC50) in assay [1] and in assay [2] was over 5 µM throughout.
Consider `CS(=O)(=O)c1ccc(-c2cccc(C(=O)Nc3ccc(=O)n(CC(=O)O)c3)c2)cc1` [I-192], for which the IC50 in assay [1] and in assay [2] was over 5 µM throughout.
With `CNC(=O)c1ccc(-c2cccc(C(=O)Nc3ccc(=O)n(CC(=O)O)c3)c2)cc1` [I-193], the IC50 in assay [1] and in assay [2] was over 5 µM in each case.
On to `CS(=O)(=O)c1cccc(-c2cccc(C(=O)Nc3ccc(=O)n(CC(=O)O)c3)c2)c1` [I-194], for which the half-maximal inhibitory concentration (IC50) in assay [1] and in assay [2] was over 5 µM in each case.
With `CNC(=O)c1cccc(-c2cccc(C(=O)Nc3ccc(=O)n(CC(=O)O)c3)c2)c1` [I-195], the IC50 in assay [1] and in assay [2] was over 5 µM each time.
Take `O=C(O)Cn1cc(NC(=O)c2ccc(-c3ccccc3Cl)cc2)ccc1=O` [I-197]: the IC50 in assay [1] and in assay [2] was over 5 µM throughout.
On to `O=C(O)Cn1cc(NC(=O)c2ccc(-c3cccnc3)cc2)ccc1=O` [I-198], for which the 50% inhibitory concentration (IC50) was over 5 µM in assay [1] and 0.5 to 5 µM in assay [2].
In the same order, the values of `O=C(O)Cn1cc(NC(=O)c2cccc(-c3ccc(C(F)(F)F)cc3)c2)ccc1=O` [I-199] are over 5 µM and over 5 µM.
In the same order, the values of `O=C(O)Cn1cc(NC(=O)c2cccc(-c3cccc(C(F)(F)F)c3)c2)ccc1=O` [I-200, 2-(2-oxo-5-(3′-(trifluoromethyl)-[1,1′-biphenyl]-3-carboxamido)pyridin-1 (2H)-yl) acetic acid] are over 5 µM and over 5 µM.
In the same order, the values of `O=C(O)Cn1cc(NC(=O)c2cccc(-c3cncnc3)c2)ccc1=O` [I-201] are 0.5 to 5 µM and 0.5 to 5 µM.
Turning to `Cc1ccc(C(=O)Nc2ccc(=O)n(CC(=O)O)c2)cc1-c1cccnc1` [I-202], the IC50 in assay [1] is 0.5 to 5 µM; in assay [2] it was 0.05 to 0.5 µM.
As for `COc1cc(-c2ccccc2)ccc1C(=O)Nc1ccc(=O)n(CC(=O)O)c1` [I-203], the half-inhibitory concentration (IC50) in assay [1] and in assay [2] was 0.5 to 5 µM in each case.
